Reference: paper PMC7617869, “Molecular glues that inhibit deubiquitylase activity and inflammatory signaling” (Nature Structural & Molecular Biology, 2025)
Values joined by “and” are separate entries in the source; they are usually repeats but may differ in a detail not shown here. Identical values can stand only once.

Key:
[1] = target: T1, ARISC (Homo sapiens, UniProt P46736+Q6UWZ7+Q9NXR7); assay: ARISC IQF DUB activity assay; assay type: biochemical; details: for Normalised V0: ARISC
T1 construct: full-length BRISC (FL), ARISC (FL); made in house; host or cells: Spodoptera frugiperda (Sf9) insect cells, MultiBac
Experimental: IQF assays were performed in DUB reaction buffer containing 50 mM HEPES–NaOH pH 7.0, 100 mM NaCl, 0.1 mg ml^−1 BSA, 1 mM DTT and 0.03% v/v Brij-35. […] The final concentration of BRISC WT, all BRISC mutants, HsBRISCΔLoop, MmBRISC and DrBRISCΔNΔC was 1 nM. Other enzymes were tested at the following concentrations: 5 nM ARISC (FL), 10 nM CfBRISCΔNΔC, 250 nM AMSH* (ref. [43]), 500 nM USP2 and 1 μM trypsin (Sigma, 9002-07-7). For Michaelis–Menten experiments, 1 nM BRISC with 0–1 μM IQF K63-linked diubiquitin substrate was used. Michaelis–Menten analyses and Lineweaver–Burk plots were calculated using GraphPad Prism (version 9.0).
To assess enzymatic activity, BRISC complexes were diluted to concentrations between 1 nM and 50 nM. […] Then, 20-μl enzyme reactions were carried out in 384-well black flat-bottom low-flange plates (Corning, 35373). DUB activity was measured using IQF K63-linked diubiquitin (LifeSensors, DU6303) at 50 nM. Cleaved diubiquitin was monitored by measuring fluorescence intensity (excitation, 544 nm; emission, 575 nm; dichroic mirror, 560 nm). Fluorescence intensity was measured every minute for 30 min at 30 °C. Fluorescence intensity units were plotted against time to generate a linear reaction progress curve, where the initial velocity (V0) corresponds to the gradient of the curve (typically achieved within 15 min). IC50 values were calculated using the GraphPad Prism (version 9.0) built-in dose–response equation for inhibitor concentration versus response (variable slope).

[2] = system: ISG expression in MCF10A Cas9 cells expressing BRCC45 WT; assay: MCF10A BRCC45 WT ISG expression (RT–qPCR); assay type: cell-based, human; details: hIFNα2 75 ng/ml, 2.5 μM, 4 h
[3] = system: ISRE in THP-1 cells (TLR9 agonist ODN 2216); assay: THP-1 ISRE luciferase reporter, ODN 2216 stimulation; assay type: cell-based, human; details: ODN 2216 1 µM, 4 μM compound, 16 h
Experimental: THP-1 in vitro experiments
THP-1-DualTM cells (InvivoGen), derived from a human monocytic cell line, isolated from a patient with acute monocytic leukaemia, were cultured as per manufacturer’s guidance. Cells were seeded at 1x10^6 cells/mL in RPMI1640 media containing 10% fetal bovine serum (FBS), 1% penicillin-streptomycin (PS) (Gibco Laboratories) with DMSO (0.1%) (control) or in media containing JMS-175- […]
ng/mL) (Merck Life Science), ODN 2216 (1 µM) (Miltenyi Biotec), or Poly:IC (1 µg/mL) (InvivoGen).
Tofacitinib (Cambridge Biosciences) at 0.4 µM was used for comparison against a known JAK inhibitor.
Cells were centrifuged at 300 g for 5 minutes. Supernatant was removed and subjected to simultaneous study of the NF -κB pathway, by monitoring the activity of secreted alkaline phosphatase reporter (SEAP), and the IRF pathway, by assessing the activity o f a secreted Lucia luciferase using QUANTI - Blue ™ Solution and QUANTI -Luc™ 4 Lucia/Gaussia (InvivoGen), respectively, as per manufacturer’s instructions. Pelleted cells were used for FACS analysis using IFNα/β R1 APC-conjugated antibody or isotype control (Biotechne, FAB245A and IC002A), or unstained staining procedure with and without Zombie GreenTM (Biolegend). Samples were analysed using CytoFlex LX (Beckman) (50,000 live cells per condition). Median fluorescence intensity for APC channel gated on single cell live cells was analysed and compared as a percentage to control (no stimulation condition). […]

SMILES: O=C(NC1C2CNCC21)c1nn(C(=O)c2c(Cl)cccc2Cl)cc1NC(=O)c1c(Cl)cccc1Cl (stereo not drawn) [FX-171-C]
- Normalised V0 ([1]; Fig. 1g, FX-171-C 0.02 μM): 1.1225 and 0.966 and 1.021
- Normalised V0 ([1]; Fig. 1g, FX-171-C 0.0399999 μM): 1.087 and 0.9846 and 0.8911
- Normalised V0 ([1]; Fig. 1g, FX-171-C 0.0599997 μM): 1.028 and 0.9352 and 0.9674
- Normalised V0 ([1]; Fig. 1g, FX-171-C 0.0799994 μM): 1.023 and 0.9476 and 0.8942
- Normalised V0 ([1]; Fig. 1g, FX-171-C 0.119998 μM): 0.9409 and 0.9459 and 1.0338
- Normalised V0 ([1]; Fig. 1g, FX-171-C 0.199996 μM): 1.019 and 0.9437 and 0.9099
- Normalised V0 ([1]; Fig. 1g, FX-171-C 0.799936 μM): 0.9597 and 0.9609 and 1.054
- Normalised V0 ([1]; Fig. 1g, FX-171-C 1.25984 μM): 0.9789 and 0.9339 and 0.958
- Normalised V0 ([1]; Fig. 1g, FX-171-C 1.9996 μM): 1.042 and 0.9796 and 1.015
- Normalised V0 ([1]; Fig. 1g, FX-171-C 3.159 μM): 0.8585 and 0.91 and 0.9812
- Normalised V0 ([1]; Fig. 1g, FX-171-C 5.19739 μM): 0.9682 and 0.9452 and 1.064
- Normalised V0 ([1]; Fig. 1g, FX-171-C 7.99364 μM): 0.9509 and 0.8953 and 0.9841
- Normalised V0 ([1]; Fig. 1g, FX-171-C 12.7839 μM): 1.013 and 0.9875 and 0.9597
- Normalised V0 ([1]; Fig. 1g, FX-171-C 19.96 μM): 0.9552 and 0.8845 and 0.9378
- Normalised V0 ([1]; Fig. 1g, FX-171-C 31.4999 μM): 0.9912 and 0.9889 and 0.9686
- Normalised V0 ([1]; Fig. 1g, FX-171-C 50.147 μM): 0.9345 and 0.8543 and 0.967
- Normalised V0 ([1]; Fig. 1g, FX-171-C 79.7601 μM): 0.9819 and 0.9178 and 0.8968
- Normalised V0 ([1]; Fig. 1g, FX-171-C 125.99 μM): 0.9989 and 0.9716 and 0.9683
- Normalised V0 ([1]; Fig. 1g, FX-171-C 199.922 μM): 0.744 and 0.5764 and 0.798
- ISG expression (ISG15, IFIT1, IFIT2, IFITM1, CXCL10) [2]: reduced gene expression for all five ISGs
- ISRE luciferase signal in THP-1 supernatant [3]: 149.667 and 263.333 and 287.667

SMILES: O=C(NC1CCNCC1)c1nn(C(=O)c2c(Cl)cccc2Cl)cc1NC(=O)c1c(Cl)cccc1Cl [JMS-175-2]
- inhibition of ARISC [1]: did not inhibit
- Normalised V0 ([1]; Fig. 1e, JMS-175-2 0.02 μM): 0.8556 and 0.9425 and 1.0233
- Normalised V0 ([1]; Fig. 1e, JMS-175-2 0.0399999 μM): 1.026 and 1.067 and 1.046
- Normalised V0 ([1]; Fig. 1e, JMS-175-2 0.0599997 μM): 0.904 and 0.9422 and 0.9811
- Normalised V0 ([1]; Fig. 1e, JMS-175-2 0.0799994 μM): 0.9323 and 0.9821 and 1.136
- Normalised V0 ([1]; Fig. 1e, JMS-175-2 0.119998 μM): 0.8786 and 0.8823 and 0.8932
- Normalised V0 ([1]; Fig. 1e, JMS-175-2 0.199996 μM): 0.9071 and 0.9585 and 0.9413
- Normalised V0 ([1]; Fig. 1e, JMS-175-2 0.499975 μM): 0.8879 and 0.8767 and 0.9696
- Normalised V0 ([1]; Fig. 1e, JMS-175-2 0.799936 μM): 0.7555 and 0.9585 and 0.9201
- Normalised V0 ([1]; Fig. 1e, JMS-175-2 1.25984 μM): 0.8739 and 0.9751 and 0.9993
- Normalised V0 ([1]; Fig. 1e, JMS-175-2 1.9996 μM): 0.8524 and 0.9491 and 1.046
- Normalised V0 ([1]; Fig. 1e, JMS-175-2 3.159 μM): 0.8187 and 0.9789 and 0.9215
- Normalised V0 ([1]; Fig. 1e, JMS-175-2 5.19739 μM): 0.8621 and 0.9152 and 0.9509
- Normalised V0 ([1]; Fig. 1e, JMS-175-2 7.99364 μM): 0.8584 and 0.954 and 0.9288
- Normalised V0 ([1]; Fig. 1e, JMS-175-2 12.7839 μM): 0.8845 and 0.9334 and 1.056
- Normalised V0 ([1]; Fig. 1e, JMS-175-2 19.96 μM): 0.8867 and 0.9068 and 0.9342
- Normalised V0 ([1]; Fig. 1e, JMS-175-2 31.4999 μM): 0.9307 and 0.9204 and 1.017
- Normalised V0 ([1]; Fig. 1e, JMS-175-2 50.147 μM): 0.795 and 0.9622 and 0.9115
- Normalised V0 ([1]; Fig. 1e, JMS-175-2 79.7601 μM): 0.6555 and 0.8717 and 0.8624
- ISG expression (ISG15, IFIT1, IFIT2, IFITM1, CXCL10) [2]: reduced gene expression for all five ISGs

SMILES: Cn1cc(NC(=O)c2c(Cl)cccc2Cl)c(C(=O)NC2CCN(C(=O)c3c(Cl)cccc3Cl)CC2)n1 [AP-5-145]
- ISRE luciferase signal in THP-1 supernatant [3]: 228.667 and 315.667 and 335.333
